Counter-ions that a name gives are not always drawn.

The conditions of data set [1]: cited from earlier work.
Data set [2] relates to term human placenta (single cotyledon). In words: ex vivo human placental perfusion, single cotyledon, open system. The note with it: range over placentas.
For data set [3] the test system is unchanged. In words: ex vivo human placental perfusion, closed-closed recirculation system. The class given is in vitro ADME. The following applies: system closed for 1-5 h; peak and trough concentrations.
For data set [4] the following is noted: cited from earlier work. This is another data set of the same source.
For data set [5] the following is noted: cited from earlier work. The source holds these as a separate data set.

With `CN[C@H](CC(C)C)C(=O)N[C@H]1C(=O)N[C@@H](CC(N)=O)C(=O)N[C@H]2C(=O)N[C@H]3C(=O)N[C@H](C(=O)N[C@H](C(=O)O)c4cc(O)cc(O)c4-c4cc3ccc4O)[C@H](O)c3ccc(c(Cl)c3)Oc3cc2cc(c3O[C@@H]2O[C@H](CO)[C@@H](O)[C@H](O)[C@H]2O[C@H]2C[C@](C)(N)[C@H](O)[C@H](C)O2)Oc2ccc(cc2Cl)[C@H]1O` [vancomycin, vancomycin hydrochloride], in data set [1], the “heparin concentration above which vancomycin precipitates when mixed” value is “more than 1 unit/ml”. The “Clearance index, mean peak range” value in data set [2] (peak concentrations) is reported as 0.000-0.080. Moreover, in data set [2] (trough concentrations), the “Clearance index, mean trough range” value is recorded as 0.00-0.17. Moreover, the “accumulation of vancomycin (fetal)” value in data set [3] is given as “No accumulation”. Besides, the “excreted by glomerular filtration” value in data set [4] (non-pregnant subjects) is 90%. In addition, in data set [4] (without meningitis), the CSF levels entry was “undetectable”. The “fraction bound to plasma proteins (unavailable for transfer)” value in data set [5] is given as “a third to a half”. In addition, the “bound to plasma proteins” value in data set [5] (non-pregnant subjects) is listed as 30-55%.

The values are drawn from publication PMC1784591 (Infectious Diseases in Obstetrics and Gynecology, 2004).
